Experimental data as given in paper PMC7190660, “Standardised comparison of limonene-derived monoterpenes identifies structural determinants of anti-inflammatory activity” (Scientific Reports, 2020).
Values joined by “and” are separate entries in the source; they are usually repeats but may differ in a detail not shown here. Equal values may be shown once.

Tests used:
[1] = test system: LPS-induced NO production in Raw 264.7 macrophages; experiment: Primary screening: LPS-induced NO production (nitrite, Griess reaction) in Raw 264.7 macrophages; format: cell-based, mouse; details: for IC50: Mus musculus, RAW264.7, Raw 264.7 cell line; for Decrease (inhibition) of LPS-induced NO production: at the highest concentration tested; for % inhibition of LPS-induced NO production: at the highest non-cytotoxic concentration tested, nitrite in supernatants; for Effect on LPS-induced NO production / anti-inflammatory activity (in words): non-cytotoxic concentrations
Protocol: (§1) Raw 264.7 cells were plated at a density of 3 × 10^5 cells/mL and left to stabilize for up to 24 h.
This vehicle was used as control. Lipopolysaccharides from Escherichia coli 026:B6 (LPS; Sigma-Aldrich Co.) were dissolved in phosphate buffered saline (PBS). Recombinant human interleukin-1β (IL-1β; Peprotech, Rocky Hill, NJ, USA) was dissolved in PBS containing 0.1% Bovine Serum Albumin.
NO production was measured as the amount of nitrite accumulated in the culture supernatants using the Griess reaction which is based in the reaction of nitrite with sulfanilamide under acidic conditions, yielding a diazonium ion that couples to N-(1-napthtyl)ethylenediamine dihydrochloride to form a water-soluble red-violet azo dye that absorbs at 550 nm[51]. Briefly, equal volumes of culture supernatants and reagents [equal volumes of 1% (w/v) sulphanilamide in 5% (v/v) phosphoric acid and 0.1% (w/v) N-(1-napthtyl)ethylenediamine dihydrochloride] were mixed and incubated for 10 min, at room temperature, in the dark. The concentration of nitrite accumulated in the culture supernatants was calculated by interpolation of the absorbance of each sample, read in Biotek Synergy HT plate reader (Biotek), in a standard curve of sodium nitrite.

Raw 264.7 cells = experiment: Cytotoxicity by resazurin reduction assay in Raw 264.7 cells; format: cell-based, mouse; details: viability not decreased by more than 30% relative to LPS alone (ISO 10993-5), LPS 1 µg/mL 18 h
Protocol: Various concentrations of the test compounds, in the absence or presence of LPS, were first evaluated for cytotoxicity using the resazurin reduction assay[26]
as §1
Resazurin is a redox dye used as an indicator of cellular metabolic activity for various applications, namely cell viability, proliferation and toxicity. The assay is based on the intracellular reduction of the non-fluorescent resazurin to resorufin (a fluorescent and pink coloured compound) by mitochondrial or microsomal enzymes that use NADH or NADPH as electron sources. Since only metabolically active cells can reduce the dye, the increase in fluorescence or absorbance is directly proportional to the number of viable cells[26],[50].
To select non-cytotoxic concentrations of the test compounds, the resazurin solution was added to each well to a final concentration of 50 µM, 90 min before the end of the treatment period indicated in the figure legends. Then, absorbances at 570 nm and 620 nm (reference wavelength) were read in a Biotek Synergy HT plate reader (Biotek, Winooski, VT, USA).

NOS2 = experiment: LPS-induced NOS2 mRNA (qRT-PCR) and protein (western blot) in Raw 264.7; format: cell-based, mouse; details: 1 h pre-treatment, Bay 11-7082 5 μM
Protocol: Macrophage cultures were treated with 1 µg/mL LPS, for 6 h (a) or 18 h (b), following pre-treatment for 1 h with 666 µM of each test compound (a) or with the concentrations indicated in (b). […] Control cells (Ctrl) were treated with the vehicle (0.1% DMSO) in the absence of LPS. Each column represents the mean ± SEM of four independent experiments. The blots shown are representative of, at least, three independent experiments and are cropped for clarity and conciseness.
Total RNA extraction and qRT-PCR were performed as described before[52]. Briefly, total RNA was extracted using the NZYol (NZYTECH, Lisbon, Portugal) and quantified in a NanoDrop ND-1000 spectrophotometer at 260 nm. RNA purity was assessed by analysis of 260/230 and 260/280 absorption ratios. The cDNA was reverse-transcribed using NZY First Strand cDNA Synthesis Kit (NZYTECH), beginning with 2 µg of total RNA. qRT-PCR was performed, in duplicate for each sample, using NZYSpeedy qPCR Green Master Mix (2×) (NZYTECH) on CFX96 Real-Time PCR Detection System (Bio-Rad, Hercules, CA, USA).
Gene expression changes were analysed using the built-in CFX Manager software which enables the analysis of the results by the Pfaffl method, a variation of the ΔΔCT method corrected for gene-specific efficiencies[53]. The results were normalized using Hprt1 as housekeeping gene.
Total cell extracts were prepared and western blot was performed as described before[54]. Briefly, total (25 µg for Raw 264.7 cell line and 20 µg for human chondrocytes) proteins were separated by SDS-PAGE under reducing conditions and electrotransferred onto PVDF membranes. […] Immune complexes were detected with Enhanced ChemiFluorescence reagent (GE Healthcare) in the imaging system Thyphoon FLA 9000 (GE Healthcare). The membranes were reprobed with a mouse monoclonal anti-β-Tubulin I antibody (Sigma-Aldrich Co.), diluted at 1:20000, as a loading control, for 1 h at room temperature. Image analysis was performed with TotalLab TL120 software (Nonlinear Dynamics Ltd).

human chondrocytes = experiment: IL-1β-induced NOS2 protein, NO production and pro-IL-1β protein in primary human chondrocytes; format: cell-based; details: IL-1β 10 ng/mL 24 h, carvone 666 or 1331 µM, Bay 11-7082 5 µM
Protocol: The cells were treated with 10 ng/mL IL-1β for 24 h (a, b, c and d), following pre-treatment for 1 h with 666 or 1331 µM of (S)-(+)-carvone (4). As a positive control, the cells were similarly treated with 5 μM Bay 11-7082 (b and c). Control cells (Ctrl) were treated with the vehicle (0.1% DMSO) in the absence of IL-1β. Each column represents the mean ± SEM of, at least, three independent experiments. The blots shown are representative of, at least, three independent experiments and are cropped for clarity and conciseness.
Briefly, cartilage shavings underwent sequential digestion with Pronase (Roche, Indianapolis, IN, USA) and collagenase A (Roche, Indianapolis, IN, USA). To avoid chondrocyte dedifferentiation, non-proliferating monolayer cultures were setup by plating 1× 10^6 chondrocytes/mL in HAM: F12 medium containing 3% antibiotics and 5% FBS and allowed to recover for 24 h at 37 °C in a humidified atmosphere with 5% CO2. Prior to any treatments, chondrocytes were serum-starved overnight and thereafter maintained in culture medium without FBS.
This vehicle was used as control. […] Recombinant human interleukin-1β (IL-1β; Peprotech, Rocky Hill, NJ, USA) was dissolved in PBS containing 0.1% Bovine Serum Albumin.
Total cell extracts were prepared and western blot was performed as described before[54]. […] Immune complexes were detected with Enhanced ChemiFluorescence reagent (GE Healthcare) in the imaging system Thyphoon FLA 9000 (GE Healthcare). The membranes were reprobed with a mouse monoclonal anti-β-Tubulin I antibody (Sigma-Aldrich Co.), diluted at 1:20000, as a loading control, for 1 h at room temperature. Image analysis was performed with TotalLab TL120 software (Nonlinear Dynamics Ltd).

SMILES | IC50 [1] | Decrease (inhibition) of LPS-induced NO production ([1]; Raw 264.7) | % inhibition of LPS-induced NO production ([1]; Raw 264.7) | Highest non-cytotoxic concentration tested (Raw 264.7 cells) | Effect on LPS-induced NO production / anti-inflammatory activity (in words) ([1]; Raw 264.7) | other results
C=C(C)[C@@H]1CCC(C)C(=O)C1 (single isomer, unassigned; (+)) [(+)-dihydrocarvone (7), (+)-dihydrocarvone] | 1.47 mM and 224 µg/mL | greater than 30% | 73.57 ± 2.81 % ± SEM | 2628 µM and 400 µg/mL | – | –
C=C(C)[C@@H]1CC=C(C)C(O)C1 (single isomer, unassigned; (-)) [(−)-carveol (6), (−)-carveol] | 2 mM and 304 µg/mL | greater than 30% | 52.30 ± 5.54 % ± SEM | 2628 µM and 400 µg/mL | – | –
C=C(C)[C@@H]1CC[C@](C)(O)[C@@H](O)C1 [(1 S,2 S,4 R)-(+)-limonene-1,2-diol (3), (1 S,2 S,4 R)-(+)-limonene-1,2-diol] | – | less than 20% | 13.90 ± 2.03 % ± SEM | 2349 µM and 400 µg/mL | inactive | –
C=C(C)[C@H]1CC[C@H](C)[C@@H](O)C1 [(+)-dihydrocarveol (8), (+)-dihydrocarveol] | 532 µM and 82.1 µg/mL | greater than 30% | 71.03 ± 2.28 % ± SEM | 1297 µM and 200 µg/mL | – | –
C=C(C)[C@H]1CC[C@H](C)C[C@@H]1O [(+)-isopulegol (10), (+)-isopulegol] | – | – | −18.47 ± 5.65 % ± SEM | 2593 µM and 400 µg/mL | inactive | Effect on LPS-induced NO production / anti-inflammatory activity (in words) ([1]; Raw 264.7, listed as 10): no effect
CC1=CC[C@@H](C(C)(C)O)CC1=O [(R)-8-hydroxycarvotanacetone (21), (R)-5-(2-hydroxypropan-2-yl)-2-methylcyclohex-2-en-1-one] | 842 µM and 142 µg/mL | greater than 30% | 76.25 ± 1.97 % ± SEM | 2378 µM and 400 µg/mL | significant activity | –
C=C(C)[C@H]1CC=C(C)CC1 [(R)-(+)-limonene (2), (R)-(+)-limonene] | – | – | −1.80 ± 0.55 % ± SEM | – | inactive | Effect on LPS-induced NO production / anti-inflammatory activity (in words) ([1]; Raw 264.7, listed as 2): no effect
CC(C)=C1CC[C@@H](C)CC1=O [(R)-(+)-pulegone (12), (R)-(+)-pulegone] | – | – | 7.80 ± 2.98 % ± SEM | 1314 µM and 200 µg/mL | inactive | Effect on LPS-induced NO production / anti-inflammatory activity (in words) ([1]; Raw 264.7, listed as 12): no effect
CC1=CC[C@H](C(C)(C)O)CC1=O [(S)-8-hydroxycarvotanacetone (20), (S)-5-(2-hydroxypropan-2-yl)-2-methylcyclohex-2-en-1-one] | 762 µM and 116 µg/mL | greater than 30% | 78.43 ± 1.60 % ± SEM | 2378 µM and 400 µg/mL | significant activity | –
C=C(C)[C@@H]1CC=C(C)CC1 [(S)-(−)-limonene (1), (S)-(−)-limonene] | – | – | 11.08 ± 4.65 % ± SEM | – | inactive | Effect on LPS-induced NO production / anti-inflammatory activity (in words) ([1]; Raw 264.7, listed as 1): no effect
CC(C)=C1CC[C@H](C)CC1=O [(S)-(−)-pulegone (13), (S)-(−)-pulegone] | – | – | 35.60 ± 4.86 % ± SEM | 2628 µM and 400 µg/mL | weak activity | –
C=C(C)[C@@H]1CC[C@@H](C)[C@H](O)C1 [(−)-dihydrocarveol (9), (−)-dihydrocarveol] | 2.14 mM and 330 µg/mL | greater than 30% | 62.03 ± 8.62 % ± SEM | 2593 µM and 400 µg/mL | – | –
C=C(C)[C@@H]1CC[C@@H](C)C[C@H]1O [(−)-isopulegol (11), (−)-isopulegol] | – | – | −12.63 ± 1.30 % ± SEM | 2593 µM and 400 µg/mL | inactive | Effect on LPS-induced NO production / anti-inflammatory activity (in words) ([1]; Raw 264.7, listed as 11): no effect
CC(C)[C@@H]1CC[C@@H](C)C[C@H]1O [(−)-menthol (15), (−)-menthol] | – | – | −6.90 ± 1.24 % ± SEM | 2560 µM and 400 µg/mL | no effect | –
CC(C)[C@@H]1CC[C@@H](C)CC1=O [(−)-menthone (14), (−)-menthone] | – | – | −9.88 ± 2.85 % ± SEM | 1297 µM and 200 µg/mL | no effect | –
Cc1ccc(S(=O)(=O)/C=C/C#N)cc1 [Bay 11-7082, reference compound] | – | – | – | – | – | NO production relative to cells treated with LPS alone ([1]; pre-treatment with 5 μM, Raw 264.7): 48.1 ± 5.2%; LPS-induced NOS2 mRNA levels (NOS2; LPS 1 µg/mL 6 h, test compounds 666 µM): decreased; LPS-induced NOS2 protein levels (NOS2; LPS 1 µg/mL 18 h): decreased; IL-1β-induced NO production (human chondrocytes): significantly decreased; IL-1β-induced NOS2 protein levels (human chondrocytes): significantly decreased
Cc1ccc(C(C)C)cc1O [carvacrol (18), carvacrol] | – | less than 20% | 10.78 ± 1.34 % ± SEM | 33 µM and 5 µg/mL | almost no activity | –
Cc1ccc(C(C)C)cc1 [p-cymene (17), p-cymene] | – | less than 20% | 8.50 ± 5.53 % ± SEM | 37 µM and 5 µg/mL | showed no activity | –
Cc1ccc(C(C)C)c(O)c1 [thymol (19), thymol] | – | less than 20% | 8.93 ± 1.91 % ± SEM | 83 µM and 12.5 µg/mL | showed no activity | –
